These results are taken from US20180094248A1, “Necroptosis Signaling as a Therapeutic Target for Alzheimer's Disease” (Arizona Board of Regents on behalf of Arizona State …, priority 2016, published 2018).

The subject of assay [1] is phosphorylated MLKL. Briefly: Western blot of total and phosphorylated MLKL in brains of Nec-1S treated 5xFAD mice. Format: in vivo, mouse. The following applies: 8-month-old 5xFAD mice; 10 mg/kg i.p. once, then 0.5 mg/ml in drinking water for 21 days; vs vehicle. The protocol:
Specifically, mice receive a single intraperitoneal injection of 10 mg/kg Nec1s after which they were given Nec1S in their drinking water at a concentration of 0.5 mg/ml for 21 days.
Protein Extraction: Human temporal gyms tissue samples (0.1 g/sample) were extracted in sequential buffers, from lower to higher detergent strength. Briefly, the samples were homogenized in TBS (50 mM Tris-HCl, pH 7.4, 175 mM NaCl, 5 mM EDTA, 1 mM N-ethyl-maleimide) containing protease inhibitors (Roche) and phosphatase inhibitors (Millipore). The protein extract was centrifuged at 120,000 g for 30 minutes at 4° C. The resulting supernatant represented the TBS soluble fraction. Pellets were homogenized in TBS/1% Triton X-100 and spun at 1000 g for 10 minutes at 4° C. The supernatant represented the Triton soluble fraction. Pellets were washed in TBS/1M sucrose and then homogenized in RIPA buffer. […]
(§1) Western blot and ELISA: The proteins were run using reducing conditions in precast gels (Thermo Fisher Scientific) and transferred to nitrocellulose membranes (iBlot, Thermo Fisher Scientific). […] The blots were then washed with TBS-T, and imaged/quantified using a LICOR Odyssey CLx (LI-COR Biosciences) attached to a Dell computer (OptiPlex 7010) running Windows 7 and Image Studio (version 1.0.11, LI-COR Biosciences). […]
On the technique in general: In western blotting, separated proteins are transferred to a membrane and probed.

Assay [2] relates to phosphorylated MLKL. Briefly: Western blot of total and phosphorylated MLKL in primary neurons (AAV-GFP experiment). Format: cell-based, mouse. The protocol:
At DIV 1, we infected primary cortical neurons isolated from APP/PS1 and wild type mice with an adeno-associated virus (AAV) expressing the green fluorescent protein (GFP) under the neuronal promotor CamKII. At DIV 7 and 11, neurons from the two genotypes were treated with 10 μM Nec1S or vehicle. We then measured GFP fluorescence in live cells as an indication of live neurons.
as §1
Primary neuronal cultures—For the GFP experiments: Primary neurons were isolated from APP/PS1 and NonTg Po pups. […] Neurons were treated for a total of 15 days and the GFP fluorescence was measured every 4 days. […] All fluorescent measurements (excitation 488 nm, emission 509 nm) were performed using the Synergy HT multi-mode microplate reader with the Gen5 software (BioTek, Winooski, Vt.). The reader was pre-heated to 37° C. to maintain optimal conditions for the neurons during the measurements. […]

`CN1C(=O)NC(Cc2c[nH]c3c(Cl)cccc23)C1=O` (stereo not drawn) [Nec1S, 5-((7-chloro-1 H-indol-3-yl)methyl)-3-methylimidazolidine-2,4-dione]: the pMLKL/MLKL ratio result with phosphorylated MLKL [1] is recorded as “lower pMLKL/MLKL ratio”. In addition, the pMLKL level entry in the assay with phosphorylated MLKL [2] (DIV 11, all four groups, AAV-GFP experiment) is reported as “not detectable”. Besides, the “ratio pMLKL/MLKL” value with phosphorylated MLKL [2] (DIV 15, 10 μM, APP/PS1-veh group vs the other three groups incl. APP/PS1-Nec1S) is listed as “statistically different compared to the other three groups”.
